In US20080213183A1, “Free or Liposomal Gemcitabine Alone or in Combination with Free or Liposomal Idarubicin” (priority 2004, published 2008):
Where a name gives a salt, the structure may show the parent alone. Read-outs that look alike come from different tables or passages of the source. Marks after values point to notes of the source that are not given here.

Tests used:
[1] = system: P388 lymphocytic leukemia cells; test: MTT cytotoxicity assay with median effects (Chou and Talalay) analysis; format: cell-based, murine; conditions: for IC50 / IC90: Mus musculus; for IC50: P388, 72 h, read-out: IC50 (concentration required to achieve 50% cell kill); for IC90: P388, read-out: IC90 drug concentration (90% cell kill)
Method: For in vitro analysis, P388 wild type and doxorubicin resistant (ADR) cells were obtained from the National Cancer Institute tissue repository (Bethesda, Md., USA) and were propagated in vivo. In brief, one vial of frozen ascites was removed from the nitrogen tank and thawed at 37° C. and cells were injected i.p. into female BDF-1 mice (6-8 weeks old, 20-22 g, Charles River Laboratories, St. Constant, QC, Canada). Transfer mice were euthanized and a peritoneal lavage was performed. With a 1 cc syringe with 20 gauge needle, 0.5-1.0 ml of peritoneal fluid was removed and aliquotted into a 15 ml falcon tube containing 5 ml of Hank's Balanced Salt Solution (HBSS, no calcium or magnesium). 0.5 ml aliquot was transferred into another 15 ml conical sterile tube containing 5 ml HBSS. The cells were exposed to plastic culture wear (for adherence of monocytes) and Ficoll-Paque density centrifugation (red blood cell removal). […] For each passage, 2 female BDF-1 mice were injected with 1×10^6 cells in 0.5 ml (2×10^6 cells/ml) of P388 cell suspension intraperitoneally. This was repeated every 6-8 days to a maximum of 20 passages. Cells adequate for animal experiments were used between the 3rd-20th passage. For tissue culture experiments such as MTT cytotoxicity assays, P388 cells were obtained following peritoneal lavage and treatment to remove red blood cells and peritoneal macrophages. […] In order to assess cytotoxicity the MTT (3-(4,5-dimethylthiazol-2-yl)-2,5-diphenyl tetrazolium bromide) assay was utilized. […] The wells in the perimeter of the 96 well microtiter plates contained 0.2 ml sterile water. […] Control wells consisted of media only (200 μl/well), or cells and media (no treatment). There were 6 replicates (per plate) for all control and treatment groups). […] The media was aspirated off and 0.15 ml DMSO was added per well and resuspended on a plate shaker (5-10 min). […] The cytotoxicity upon drug exposure was quantified by expressing the percent cell viability for each treatment relative to untreated control cells (% control). […] This was further analyzed by the median effects principle by Chou and Talalay, cited above. The method by Chou and Talalay was used to distinguish between synergy, antagonism and additive effects of combined drug treatments from in vitro MTT cytotoxicity assays. This method, now provided in a software package (Calculsyn; Biosoft, Cambridge, UK), derives a median effects equation (1) to correlate drug dose and effect. Fixed ratio combinations of idarubicin and gemcitabine were initially selected on the basis of IC50 of each drug. […] Data were reported as mean±S.D. from three separate experiments, performed in triplicate.

[2] = Plasma elimination of free and liposomal gemcitabine; format: in vivo, Balb/c mice; conditions: 33 μmole gemcitabine/kg i.v.
Method: Pharmacokinetic Analysis: Balb/c mice breeders, 20-22 g, were purchased from Charles River Laboratories (St. Constant, QC, Canada) and bred in-house. Mice were housed in micro-isolator cages and given free access to food and water. All animal studies were conducted according to procedures approved by the University of British Columbia's Animal Care Committee and in accordance with the current guidelines established by the Canadian Council of Animal Care.
The plasma elimination of idarubicin and gemcitabine containing tracer quantities of 3[H]-gemcitabine was assessed. Mice were injected with 33 μmoles/kg drug administered intravenously into the lateral tail vein of Balb/c mice. At various time points up to 4 hours post drug administration, blood was collected by tail nick (collected in microfuge tubes) or cardiac puncture (collected in liquid EDTA coated tubes), centrifuged at 1000 g to isolate the plasma fraction. The plasma was placed in a separate microfuge tube and vortexed to ensure a homogenous distribution.
The tail nick procedure for obtaining blood samples was used to minimize the number of mice sacrificed. In this way, three blood samples could be obtained from a single mouse within a 24 hour time interval. In brief, the lateral tail vein of mice was nicked with a small sharp blade. A 25 μl glass pipette, pre-washed with EDTA, was used to withdraw blood. The blood was expelled into a microfuge tube containing 200 μl of 5% (wt/vol) EDTA and thoroughly mixed. Blood/EDTA samples were centrifuged for 10 minutes at 1000 g. The supernatant was transferred to a 1.5 ml microfuge tube. 250 μl Hank's balanced salt solution (HBSS) was added to the pellet, resuspended and centrifuged for 10 minutes at 1000 g. The supernatants were mixed together. Assuming a 48% hematocrit for a 20 gram Balb/c mice, approximately 13 μl plasma was obtained from a 25 μl blood sample. From the recovered plasma samples, aliquots were used to measure drug (and or lipid) concentrations.
The plasma elimination of liposomal drugs containing doxorubicin, daunorubicin, idarubicin, or gemcitabine samples administered intravenously into the lateral tail vein of Balb/c female mice was assessed. Mice were injected with 33 μmole/kg drug and 165 μmole/kg lipid. For liposomal gemcitabine samples, mice were injected with 33 μmole/kg gemcitabine at an approximate 0.1 drug-to-lipid mole ratio). At various time points post drug administration, blood was collected by tail nick or cardiac puncture. Plasma lipid and 3[H]-gemcitabine were quantified by liquid scintillation counting. Anthracyclines were extracted from plasma with a partitioning assay, followed by fluorescence spectrometer detection.
The plasma elimination data was modeled using WinNonlin (version 1.5) pharmacokinetic software (Pharsight Corporation, Mountain View, Calif., USA) to calculate pharmacokinetic parameters. […] The mean plasma AUC for a defined time interval was determined from the concentration-time curves and subsequent calculation by the standard trapezoidal rule.
Liposome mediated increases in gemcitabine blood residence time were also evaluated as follows: Free and liposomal gemcitabine formulations were administered to female Balb/c mice at a dose of 33 μmole gemcitabine/kg (9.9 mg/kg) and 165 μmole total lipid/kg.

[3] = Dose range finding, maximum tolerable dose; format: in vivo; conditions: no significant toxicity for 30 days
Method: Dose range finding studies of free and liposomal idarubicin and/or gemcitabine were performed in non-tumor bearing female BDF-1 mice. Mice were weighed daily and monitored for signs of stress or toxicity (e.g., lethargy, scruffy coat, ataxia).

[4] = system: non small cell lung cancer; conditions: cited from earlier work
[5] = at IC90, GEM/IDA 1:1 fixed molar ratio
[6] = at IC90, GEM/IDA 1:10 fixed molar ratio
[7] = female, Balb/c, mouse, iv, 33 μmole/kg, plasma

Method for P388 tumors: For in vivo testing of antitumor activity was evaluated in P388 lymphocytic leukemia model.
Treatments commenced 24 hours post tumor cell inoculation. Treatment groups consisted of saline (control) and 0.5, 1, 2 and 3 mg/kg doses of free or liposomal idarubicin administered as a single i.v. bolus injection and between 100 to 500 mg/kg gemcitabine and 1 to 5 mg/kg liposomal gemcitabine (selected on the basis of dose range finding studies). Fixed dose ratios for combination treatments were defined on the basis of 0.66 MTD when used as a single agent. […] Median survival and percent weight loss was determined for each treatment.
All data values are reported as mean±standard deviation (S.D.). A standard one-way analysis of variance (ANOVA) was used to determine statistically significant differences of the means. For multiple comparisons, post-hoc analysis using the Tukey-Kramer test. Survival curves were computed using the Kaplan-Meier method. […] Treatment groups were subsequently analyzed using SPSS statistics software (SPSS Inc., Chicago, Ill., USA) and compared using a two sample log-rank test. P<0.05 was considered significant for all statistics tests.

With `Nc1ccn([C@@H]2O[C@H](CO)[C@@H](O)C2(F)F)c(=O)n1` [GEM, gemcitabine hydrochloride] the IC50 [1] was 0.26 nM, the IC90 [1] was 0.9 nM and the “dose reduction index (DRI)” value [1, 5] was 1.8. The “dose reduction index (DRI)” value [1, 6] was 14, the “fold more cytotoxic than idarubicin” value ([1]; from IC50) was “approximately 10 fold” and the AUC0-t ([2]; Tlast 4 hours) was 0.1^b μmole · h · ml^−1. It also gave an AUMC ([2]; plasma) of 0.3 μmole · h^2 · ml^−1, an MRT last [2, 7] of 3.1 h and a clearance [2, 7] of 0.102 mL/min. The half-life [2, 7] was 2.1 h, the maximum tolerable dose [3] was 500 mg/kg and the “% ILS” value (P388 tumors; GEM 100 mg/kg) was 63%. The “% Weight Change, day 5” value (P388 tumors; GEM 100 mg/kg) was 0.4%, the “Cell Kill” value (P388 tumors; GEM 100 mg/kg) was 2.9 LOG10 and the MST (P388 tumors; GEM 100 mg/kg) was 13 days. For the same molecule, the Survivors (P388 tumors; GEM 100 mg/kg) was 0/6, the “% ILS” value (P388 tumors; GEM 200 mg/kg) was 81% and the “% Weight Change, day 5” value (P388 tumors; GEM 200 mg/kg) was 3.0%. For the same molecule, the “Cell Kill” value (P388 tumors; GEM 200 mg/kg) was 3.7 LOG10, the MST (P388 tumors; GEM 200 mg/kg) was 14.5 days and the Survivors (P388 tumors; GEM 200 mg/kg) was 0/6. For the same molecule, the “% ILS” value (P388 tumors; GEM 300 mg/kg) was 81%, the “% Weight Change, day 5” value (P388 tumors; GEM 300 mg/kg) was 2.3% and the “Cell Kill” value (P388 tumors; GEM 300 mg/kg) was 3.7 LOG10. The MST (P388 tumors; GEM 300 mg/kg) was 14.5 days, the Survivors (P388 tumors; GEM 300 mg/kg) was 0/6 and the “% Weight Change, day 5” value (P388 tumors; GEM 400 mg/kg) was 1.8%. The “Cell Kill” value (P388 tumors; GEM 400 mg/kg) was 4.0 LOG10, the MST (P388 tumors; GEM 400 mg/kg) was 15 days and the Survivors (P388 tumors; GEM 400 mg/kg) was 0/6. For the same molecule, the “% ILS” value (P388 tumors; GEM 400 mg/kg, hydrochloride) was 88%, the “% ILS” value (P388 tumors; GEM 400 mg/kg, listed as free gemcitabine, hydrochloride) was 87.5% and the “% ILS” value (P388 tumors; GEM 500 mg/kg) was 75%. The “% Weight Change, day 5” value (P388 tumors; GEM 500 mg/kg) was 0.0%, the “Cell Kill” value (P388 tumors; GEM 500 mg/kg) was 3.4 LOG10 and the MST (P388 tumors; GEM 500 mg/kg) was 14 days. The Survivors (P388 tumors; GEM 500 mg/kg) was 0/10, the maximum therapeutic dose (P388 tumors; P388 model, single agent) was 400 mg/kg and the overall response rate ([4]; 800-1250 mg/m2, in combination with cisplatin) was 50%. The overall response rate ([4]; 800-1250 mg/m2, single agent) was 20% and the median survival ([4]; in combination with cisplatin) was “greater than 1 year”.
With `CC(=O)[C@]1(O)Cc2c(O)c3c(c(O)c2[C@@H](O[C@H]2C[C@H](N)[C@H](O)[C@H](C)O2)C1)C(=O)c1ccccc1C3=O` [IDA, idarubicin hydrochloride] the IC50 [1] was 1.8 nM, the IC90 [1] was 5.7 nM and the “dose reduction index (DRI)” value [1, 5] was 11.8. For the same molecule, the “dose reduction index (DRI)” value [1, 6] was 8.5, the “fold reduction in concentration required” value ([1]; at IC90, GEM/IDA 10:1 fixed ratio) was 180 fold and the “% ILS” value (P388 tumors; IDA 0.5 mg/kg) was 13%. The “% Weight Change, day 5” value (P388 tumors; IDA 0.5 mg/kg) was 13.6%, the “Cell Kill” value (P388 tumors; IDA 0.5 mg/kg) was 0.6 LOG10 and the MST (P388 tumors; IDA 0.5 mg/kg) was 9 days. The Survivors (P388 tumors; IDA 0.5 mg/kg) was 0/12, the “% ILS” value (P388 tumors; IDA 1 mg/kg) was 50% and the “% Weight Change, day 5” value (P388 tumors; IDA 1 mg/kg) was 2.1%. For the same molecule, the “Cell Kill” value (P388 tumors; IDA 1 mg/kg) was 2.3 LOG10, the MST (P388 tumors; IDA 1 mg/kg) was 12 days and the Survivors (P388 tumors; IDA 1 mg/kg) was 0/12. The “% ILS” value (P388 tumors; IDA 2 mg/kg) was 113%, the “% Weight Change, day 5” value (P388 tumors; IDA 2 mg/kg) was −1.4% and the “Cell Kill” value (P388 tumors; IDA 2 mg/kg) was 5.1 LOG10. The MST (P388 tumors; IDA 2 mg/kg) was 17 days and the Survivors (P388 tumors; IDA 2 mg/kg) was 1/12.
